Source: PubChem BioAssay AID1918948 (Molecular Pharmacology Branch, DTP, NCI, 2023)

System: K-562 leukemia growth, % test/control
Test: Anticancer human tumor K-562 cell line growth inhibition;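 further: spheroids exposed to compounds for 7 days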;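 on viability, T/C: 100% = DMSO vehicle wells and lower values mean fewer viable cells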
Details: spheroids with HUVEC and MSC; for IC50: curve of first compound; for viability, T/C: stronger effect = lower value
How it was run: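 Multicellular complex spheroids of tumor cells with human endothelial cells (HUVEC) and mesenchymal stem cells; the LSD1 inhibitor iadademstat was combined with standard-of-care or investigational agents. Top concentration at or near clinical Cmax, half-log dilutions; final DMSO ≤0.25%.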

[1] = second compound 0.1 µM, first compound 0.00949 µM
[2] = second compound 0.1 µM, first compound 0.03 µM
[3] = second compound 0.1 µM, first compound 0.0949 µM
[4] = second compound 0.1 µM, first compound 0.3 µM
[5] = second compound 0.1 µM, first compound 0.949 µM
[6] = second compound 0.1 µM, first compound 3 µM
[7] = second compound 0.316 µM, first compound 0.00949 µM
[8] = second compound 0.316 µM, first compound 0.03 µM
[9] = second compound 0.316 µM, first compound 0.0949 µM
[10] = second compound 0.316 µM, first compound 0.3 µM
[11] = second compound 0.316 µM, first compound 0.949 µM
[12] = second compound 0.316 µM, first compound 3 µM
[13] = second compound 1 µM, first compound 0.00949 µM
[14] = second compound 1 µM, first compound 0.03 µM
[15] = second compound 1 µM, first compound 0.0949 µM
[16] = second compound 1 µM, first compound 0.3 µM
[17] = second compound 1 µM, first compound 0.949 µM
[18] = second compound 1 µM, first compound 3 µM
[19] = second compound 3.16 µM, first compound 0.00949 µM
[20] = second compound 3.16 µM, first compound 0.03 µM
[21] = second compound 3.16 µM, first compound 0.0949 µM
[22] = second compound 3.16 µM, first compound 0.3 µM
[23] = second compound 3.16 µM, first compound 0.949 µM
[24] = second compound 3.16 µM, first compound 3 µM
[25] = second compound 10 µM, first compound 0.00949 µM
[26] = second compound 10 µM, first compound 0.03 µM
[27] = second compound 10 µM, first compound 0.0949 µM
[28] = second compound 10 µM, first compound 0.3 µM
[29] = second compound 10 µM, first compound 0.949 µM
[30] = second compound 10 µM, first compound 3 µM

In the case of `NS(=O)(=O)OCC1CC(n2ccc3c(NC4CCc5ccccc54)ncnc32)CC1O` (stereo not given) + NC1CC1c1ccc(-c2cccc(O)c2)cc1, the IC50 (second compound 0.1 µM) is reported as < 9.49 nM, the IC50 (second compound 0.316 µM) is reported as < 9.49 nM and the IC50 (second compound 1 µM) is reported as < 9.49 nM. The IC50 (second compound 3.16 µM) was < 9.49 nM, the IC50 (second compound 10 µM) was < 9.49 nM and the viability, T/C [1] was 50.7%. The viability, T/C [2] was 32.8%, the viability, T/C [3] was 37.7% and the viability, T/C [4] was 19.2%. The viability, T/C [5] was 11.2%, the viability, T/C [6] was 4.04% and the viability, T/C [7] was 47%. The viability, T/C [8] was 29.9%, the viability, T/C [9] was 32% and the viability, T/C [10] was 16.3%. The viability, T/C [11] was 10.3%, the viability, T/C [12] was 3.18% and the viability, T/C [13] was 46.8%. It also gave a viability, T/C [14] of 27.1%, a viability, T/C [15] of 32.8% and a viability, T/C [16] of 14.8%. For the same compound, the viability, T/C [17] was 10.3%, the viability, T/C [18] was 3.44% and the viability, T/C [19] was 45.6%. It also gave a viability, T/C [20] of 25.7%, a viability, T/C [21] of 30.2% and a viability, T/C [22] of 13.2%. For the same compound, the viability, T/C [23] was 8.49%, the viability, T/C [24] was 1.8% and the viability, T/C [25] was 30.5%. The viability, T/C [26] was 19.8%, the viability, T/C [27] was 21.2% and the viability, T/C [28] was 9.28%. The viability, T/C [29] was 2.95% and the viability, T/C [30] was 0.72%.
Work on `CC1(C)CCC(CN2CCN(c3ccc(C(=O)NS(=O)(=O)c4ccc(NCC5CCOCC5)c([N+](=O)[O-])c4)c(Oc4cnc5[nH]ccc5c4)c3)CC2)=C(c2ccc(Cl)cc2)C1` + NC1CCC(NC2CC2c2ccccc2)CC1 yielded an IC50 (second compound 0.1 µM) of 6560 nM, an IC50 (second compound 0.316 µM) of 6650 nM and an IC50 (second compound 1 µM) of 6570 nM. The IC50 (second compound 3.16 µM) was 6940 nM, the IC50 (second compound 10 µM) was 6520 nM and the viability, T/C (second compound 0.1 µM, first compound 0.0316 µM) was 99.8%. It also gave a viability, T/C (second compound 0.1 µM, first compound 0.1 µM) of 102%, a viability, T/C (second compound 0.1 µM, first compound 0.316 µM) of 101% and a viability, T/C (second compound 0.1 µM, first compound 1 µM) of 104%. For the same compound, the viability, T/C (second compound 0.1 µM, first compound 3.16 µM) was 109%, the viability, T/C (second compound 0.1 µM, first compound 10 µM) was 19.1% and the viability, T/C (second compound 0.316 µM, first compound 0.0316 µM) was 102%. For the same compound, the viability, T/C (second compound 0.316 µM, first compound 0.1 µM) was 104%, the viability, T/C (second compound 0.316 µM, first compound 0.316 µM) was 104% and the viability, T/C (second compound 0.316 µM, first compound 1 µM) was 101%. It also gave a viability, T/C (second compound 0.316 µM, first compound 3.16 µM) of 110%, a viability, T/C (second compound 0.316 µM, first compound 10 µM) of 20% and a viability, T/C (second compound 1 µM, first compound 0.0316 µM) of 104%. For the same compound, the viability, T/C (second compound 1 µM, first compound 0.1 µM) was 104%, the viability, T/C (second compound 1 µM, first compound 0.316 µM) was 107% and the viability, T/C (second compound 1 µM, first compound 1 µM) was 108%. The viability, T/C (second compound 1 µM, first compound 3.16 µM) was 110%, the viability, T/C (second compound 1 µM, first compound 10 µM) was 17.6% and the viability, T/C (second compound 3.16 µM, first compound 0.0316 µM) was 105%. The viability, T/C (second compound 3.16 µM, first compound 0.1 µM) was 103%, the viability, T/C (second compound 3.16 µM, first compound 0.316 µM) was 104% and the viability, T/C (second compound 3.16 µM, first compound 1 µM) was 108%. For the same compound, the viability, T/C (second compound 3.16 µM, first compound 3.16 µM) was 106%, the viability, T/C (second compound 3.16 µM, first compound 10 µM) was 24.3% and the viability, T/C (second compound 10 µM, first compound 0.0316 µM) was 97.6%. It also gave a viability, T/C (second compound 10 µM, first compound 0.1 µM) of 99.6%, a viability, T/C (second compound 10 µM, first compound 0.316 µM) of 99.8% and a viability, T/C (second compound 10 µM, first compound 1 µM) of 101%. For the same compound, the viability, T/C (second compound 10 µM, first compound 3.16 µM) was 101% and the viability, T/C (second compound 10 µM, first compound 10 µM) was 20.5%.
For `Nc1ccccc1NC(=O)c1ccc(CNC(=O)OCc2cccnc2)cc1` + NC1CC1c1ccc(-c2cccc(O)c2)cc1, the IC50 (second compound 0.1 µM) was 180 nM, the IC50 (second compound 0.316 µM) was 173 nM and the IC50 (second compound 1 µM) was 165 nM. The IC50 (second compound 3.16 µM) was 152 nM, the IC50 (second compound 10 µM) was 121 nM and the viability, T/C [1] was 114%. The viability, T/C [2] was 111%, the viability, T/C [3] was 103% and the viability, T/C [4] was 7.04%. It also gave a viability, T/C [5] of 0.24%, a viability, T/C [6] of 1.31% and a viability, T/C [7] of 114%. The viability, T/C [8] was 109%, the viability, T/C [9] was 97.1% and the viability, T/C [10] was 6.48%. The viability, T/C [11] was 0.2%, the viability, T/C [12] was 0.13% and the viability, T/C [13] was 111%. For the same compound, the viability, T/C [14] was 110%, the viability, T/C [15] was 92% and the viability, T/C [16] was 5.06%. For the same compound, the viability, T/C [17] was 0.25%, the viability, T/C [18] was 0.13% and the viability, T/C [19] was 111%. The viability, T/C [20] was 111%, the viability, T/C [21] was 81.3% and the viability, T/C [22] was 4.61%. For the same compound, the viability, T/C [23] was 0.18%, the viability, T/C [24] was 1.02% and the viability, T/C [25] was 104%. The viability, T/C [26] was 98.5%, the viability, T/C [27] was 62.6% and the viability, T/C [28] was 3.34%. For the same compound, the viability, T/C [29] was 0.19% and the viability, T/C [30] was 1.28%.
